Read-outs that look alike come from different tables or passages of the source.
Assays:
[1] = tested on: o-SARS-CoV-2 spike pseudotyped virus particles (BA.2 lineage); format: cell-based; conditions: luciferase 72 h post-transduction
[2] = tested on: α-SARS-CoV-2 spike pseudotyped virus particles; format: cell-based; conditions: luciferase 72 h post-transduction
[3] = cell-pretreatment protocol: VERO cells with FA 20 μM or L7OG 5 μM for 2 h

O=C(O)[C@H]1O[C@@H](Oc2cc(O)c3c(=O)cc(-c4ccc(O)c(O)c4)oc3c2)[C@H](O)[C@@H](O)[C@@H]1O [Compound L7OG, luteolin-7-O-glucuronide]
entry of o-SARS-CoV-2 pseudovirus (in words) [1, 3]: neither L7OG nor FA inhibited the entry | entry of α-SARS-CoV-2 pseudovirus (in words) [2, 3]: neither L7OG nor FA inhibited the entry

Nc1nc(=O)c2nc(CNc3ccc(C(=O)N[C@@H](CCC(=O)O)C(=O)O)cc3)cnc2[nH]1 [FA, folic acid, reference compound]
entry of o-SARS-CoV-2 pseudovirus (in words) ([1]; […], VERO cells): blocked the entry | entry of o-SARS-CoV-2 pseudovirus (in words) [1, 3]: neither L7OG nor FA inhibited the entry | entry of α-SARS-CoV-2 pseudovirus (in words) ([2]; […], VERO cells): blocked the entry | entry of α-SARS-CoV-2 pseudovirus (in words) [2, 3]: neither L7OG nor FA inhibited the entry
